Legend:
Test in all cases: relative viability (nuclei count vs DMSO), 5 days (fraction); higher = more cells survive
Pemetrexed + OSI-027 = compound: Nc1nc2[nH]cc(CCc3ccc(C(=O)N[C@@H](CCC(=O)O)C(=O)O)cc3)c2c(=O)[nH]1 [Pemetrexed] + COc1cccc2cc(-c3nc([C@H]4CC[C@H](C(=O)O)CC4)n4ncnc(N)c34)[nH]c12 [OSI-027] (partner 0.5 µM)
Procedure, shortened: (§1)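 Relative viability divides the nuclei count in treated wells by that in vehicle wells. Lung cancer cell lines were seeded in 1536-well plates, dosed by pin tool the next day, and fixed and stained after 5 days in one step with final 0.05% Triton X-100, 1% formaldehyde and 1 ug/ml Hoechst. Dosing was a single drug or a fixed anchor-drug dose plus five library-drug doses (not always all listed) in √10 steps, and values are medians of duplicate plates imaged at 4×.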

Pemetrexed + Palbociclib = compound: Nc1nc2[nH]cc(CCc3ccc(C(=O)N[C@@H](CCC(=O)O)C(=O)O)cc3)c2c(=O)[nH]1 [Pemetrexed] + CC(=O)c1c(C)c2cnc(Nc3ccc(N4CCNCC4)cn3)nc2n(C2CCCC2)c1=O [Palbociclib] (partner 0.5 µM)
Procedure, shortened: as §1

Idelalisib + Luminespib = compound: CC[C@H](Nc1ncnc2[nH]cnc12)c1nc2cccc(F)c2c(=O)n1-c1ccccc1 [Idelalisib] + CCNC(=O)c1noc(-c2cc(C(C)C)c(O)cc2O)c1-c1ccc(CN2CCOCC2)cc1 [Luminespib] (partner 0.01 µM)
Procedure, shortened: as §1

Idelalisib + Phenformin = compound: CC[C@H](Nc1ncnc2[nH]cnc12)c1nc2cccc(F)c2c(=O)n1-c1ccccc1 [Idelalisib] + N=C(N)NC(=N)NCCc1ccccc1 [Phenformin] (partner 250 µM)
Procedure, shortened: as §1

Cell Line	relative viability (Pemetrexed + OSI-027; first compound 0.002 µM)	relative viability (Pemetrexed + OSI-027; first compound 0.006325 µM)	relative viability (Pemetrexed + OSI-027; first compound 0.02 µM)	relative viability (Pemetrexed + OSI-027; first compound 0.06325 µM)	relative viability (Pemetrexed + OSI-027; first compound 0.2 µM)	relative viability (Pemetrexed + Palbociclib; first compound 0.002 µM)	relative viability (Pemetrexed + Palbociclib; first compound 0.006325 µM)	relative viability (Pemetrexed + Palbociclib; first compound 0.02 µM)	relative viability (Pemetrexed + Palbociclib; first compound 0.06325 µM)	relative viability (Pemetrexed + Palbociclib; first compound 0.2 µM)	relative viability (Idelalisib + Luminespib; first compound 0.04 µM)	relative viability (Idelalisib + Luminespib; first compound 0.1265 µM)	relative viability (Idelalisib + Luminespib; first compound 0.4 µM)	relative viability (Idelalisib + Luminespib; first compound 1.265 µM)	relative viability (Idelalisib + Luminespib; first compound 4 µM)	relative viability (Idelalisib + Phenformin; first compound 0.04 µM)	relative viability (Idelalisib + Phenformin; first compound 0.1265 µM)	relative viability (Idelalisib + Phenformin; first compound 0.4 µM)	relative viability (Idelalisib + Phenformin; first compound 1.265 µM)	relative viability (Idelalisib + Phenformin; first compound 4 µM)
HOP-62	0.728	0.856	0.936	0.825	0.729	0.363	0.479	0.555	0.452	0.37	1.03	0.875	0.83	1.08	0.926	0.558	0.656	0.589	0.672	0.654
LC-2-ad	0.606	0.831	0.561	0.28	0.339	0.452	0.501	0.524	0.431	0.404	1.17	1.06	0.886	1.14	0.957	0.602	0.592	0.462	0.626	0.546
SW 900	0.633	0.608	0.689	0.591	0.464	0.549	0.564	0.604	0.516	0.521	0.21	0.193	0.152	0.183	0.165	0.683	0.458	0.634	0.614	0.395
NCI-H322M	0.606	0.484	0.536	0.583	0.476	0.465	0.458	0.494	0.509	0.462	0.955	0.919	0.719	0.847	0.683	0.901	0.846	0.66	0.741	0.735
SK-LU-1	0.312	0.319	0.398	0.352	0.34	0.54	0.379	0.391	0.413	0.375	0.225	0.189	0.185	0.188	0.205	0.601	0.57	0.433	0.55	0.468
NCI-H1734	0.65	0.564	0.675	0.571	0.53	0.192	0.358	0.366	0.333	0.346	0.247	0.184	0.203	0.192	0.155	0.455	0.446	0.344	0.377	0.377
HCC-44	0.489	0.623	0.631	0.484	0.444	0.909	0.95	0.934	0.972	0.99	1.25	1.06	0.852	1.18	1.05	0.201	0.229	0.177	0.235	0.153
NCI-H2170	0.656	0.698	0.692	0.708	0.744	0.371	0.396	0.435	0.416	0.378	0.548	0.843	0.645	0.61	0.673	0.443	0.449	0.403	0.408	0.373
NCI-H1395	0.6	0.641	0.727	0.675	0.694	0.61	0.599	0.675	0.625	0.599	0.675	0.72	0.662	0.694	0.645	0.476	0.421	0.423	0.445	0.439
NCI-H1355	0.391	0.389	0.466	0.509	0.387	0.372	0.391	0.391	0.413	0.402	0.672	0.779	0.531	0.628	0.602	0.476	0.502	0.364	0.448	0.411
NCI-H1650	0.674	0.531	0.714	0.356	0.304	0.284	0.299	0.381	0.247	0.245	0.18	0.191	0.198	0.219	0.185	0.439	0.341	0.35	0.371	0.379
NCI-H1666	0.961	0.758	0.955	0.906	0.79	0.666	0.647	0.704	0.674	0.623	1.09	1.13	1.06	1.01	1.04	0.618	0.57	0.539	0.583	0.546
HCC-78	0.326	0.354	0.395	0.336	0.293	0.443	0.484	0.441	0.417	0.424	–	–	–	–	–	0.945	0.647	0.582	0.751	0.674
H3255	0.542	0.55	0.598	0.659	0.585	0.351	0.319	0.312	0.31	0.328	1.13	0.786	0.78	0.882	0.878	0.359	0.329	0.351	0.352	0.336
NCI-H23	0.516	0.532	0.623	0.684	0.663	0.451	0.439	0.448	0.503	0.473	0.219	0.221	–	–	0.196	0.713	0.845	0.792	–	0.776
NCI-H1944	–	0.512	0.43	0.405	0.403	0.286	0.304	0.339	0.312	0.343	0.809	0.621	0.609	0.636	0.532	0.237	0.204	0.158	0.187	0.175
NCI-H1651	0.61	0.66	0.805	0.624	0.717	0.548	0.477	0.52	0.495	0.529	0.789	1	0.832	0.809	0.605	0.35	0.372	0.258	0.322	0.321
COR-L 105	0.735	0.638	1.01	0.646	0.619	0.295	0.424	0.399	0.396	0.423	0.695	0.783	0.814	0.699	0.573	0.592	0.473	0.433	0.564	0.421

Cell Line	relative viability (Pemetrexed + OSI-027; first compound 0.002 µM)	relative viability (Pemetrexed + OSI-027; first compound 0.006325 µM)	relative viability (Pemetrexed + OSI-027; first compound 0.02 µM)	relative viability (Pemetrexed + OSI-027; first compound 0.06325 µM)	relative viability (Pemetrexed + OSI-027; first compound 0.2 µM)	relative viability (Pemetrexed + Palbociclib; first compound 0.002 µM)	relative viability (Pemetrexed + Palbociclib; first compound 0.006325 µM)	relative viability (Pemetrexed + Palbociclib; first compound 0.02 µM)	relative viability (Pemetrexed + Palbociclib; first compound 0.06325 µM)	relative viability (Pemetrexed + Palbociclib; first compound 0.2 µM)	relative viability (Idelalisib + Luminespib; first compound 0.04 µM)	relative viability (Idelalisib + Luminespib; first compound 0.1265 µM)	relative viability (Idelalisib + Luminespib; first compound 0.4 µM)	relative viability (Idelalisib + Luminespib; first compound 1.265 µM)	relative viability (Idelalisib + Luminespib; first compound 4 µM)	relative viability (Idelalisib + Phenformin; first compound 0.04 µM)	relative viability (Idelalisib + Phenformin; first compound 0.1265 µM)	relative viability (Idelalisib + Phenformin; first compound 0.4 µM)	relative viability (Idelalisib + Phenformin; first compound 1.265 µM)	relative viability (Idelalisib + Phenformin; first compound 4 µM)
RERF-LC-KJ	0.528	0.508	0.666	0.546	0.451	0.877	1.08	1.14	0.976	0.773	1.31	1.33	1.12	1.19	1.07	0.442	0.438	0.419	0.44	0.373
NCI-H1793	0.251	0.259	0.309	0.284	0.289	0.306	0.291	0.326	0.278	0.295	0.208	0.253	0.166	0.179	0.183	0.388	0.369	0.288	0.335	0.224
CAL-12T	0.617	0.631	0.819	0.648	0.671	0.338	0.435	0.575	0.438	0.341	0.302	0.635	0.362	0.564	0.264	0.622	0.614	0.507	0.65	0.67
NCI-H1993	0.609	0.524	0.503	0.504	0.585	1.1	0.605	0.635	0.727	0.554	0.778	0.889	0.779	1.06	0.822	0.57	0.484	0.554	0.59	0.486
LXF-289	0.775	0.759	0.909	0.76	0.744	0.593	0.623	0.589	0.594	0.557	0.776	0.575	0.663	0.815	0.439	0.506	0.518	0.46	0.534	0.496
NCI-H1792	0.735	0.808	0.778	0.715	0.744	0.7	0.608	0.685	0.671	0.642	0.408	0.434	–	0.679	0.33	0.335	0.182	–	0.225	0.208
LU99A	0.334	0.267	0.326	0.292	0.313	0.409	0.389	0.407	0.397	0.407	0.217	0.274	0.238	0.285	0.243	1.06	0.836	0.737	0.988	1.01
SW 1573	0.602	0.465	0.718	0.646	0.61	0.352	0.423	0.435	0.413	0.235	0.275	0.171	0.219	0.17	0.365	0.383	0.37	0.336	0.36	0.336
COR-L23	0.699	0.781	0.799	0.275	0.163	0.21	0.275	0.254	0.149	0.127	0.848	0.681	0.699	0.819	0.549	0.439	0.39	0.411	0.433	0.517
NCI-H1755	0.685	0.797	0.782	0.691	0.667	0.488	0.423	0.478	0.448	0.412	0.331	0.339	0.449	0.699	0.293	0.633	0.601	0.558	0.675	0.531
LOU-NH91	0.68	0.727	0.789	0.667	0.531	0.478	0.555	0.543	0.534	0.52	0.281	0.321	0.327	0.33	0.315	0.712	0.725	0.573	0.492	0.643
A549	–	–	–	–	–	–	–	–	–	–	–	–	–	–	–	0.36	0.182	–	0.154	0.178
NCI-H1648	0.253	0.268	0.22	–	0.26	0.255	0.24	0.24	0.282	0.302	–	–	–	–	–	–	–	–	–	–
NCI-H1563	0.731	0.695	0.803	0.728	0.778	–	–	–	–	–	0.562	0.543	0.557	0.519	0.5	0.666	0.666	0.612	0.631	0.638
NCI-H1623	0.406	0.451	0.552	0.462	0.426	–	–	–	–	–	0.461	0.494	0.394	0.381	0.516	0.596	0.619	0.537	0.529	0.547
NCI-H596	0.705	0.691	0.642	0.632	0.414	–	–	–	–	–	1.13	0.925	0.827	0.905	0.847	0.75	0.765	0.689	0.731	0.616
HCC-366	0.485	0.795	1.04	0.922	0.816	0.356	0.349	0.349	0.367	0.226	–	–	–	–	–	0.597	0.639	0.619	0.632	0.679
